Experimental data: PMC5218480 (PLoS ONE, 2017)

Test system: MV-4-11 cells
Test: Gene expression microarray analysis (Affymetrix PrimeView) and GSEA
Format: cell-based, human
Parameters: RFU PODN (11730768_x_at) / Fold change /veh PODN (11730768_x_at) / RFU LINC00158 (11744669_a_at) / Fold change /veh LINC00158 (11744669_a_at) / RFU DUSP10 (11751237_a_at) / Fold change /veh DUSP10 (11751237_a_at) / RFU ID3 (11757404_x_at) / Fold change /veh ID3 (11757404_x_at) / RFU PLEKHG5 (11737974_s_at) / Fold change /veh PLEKHG5 (11737974_s_at) / RFU LRRC4B (11730491_at) / Fold change /veh LRRC4B (11730491_at) / RFU GIMAP4 (11747438_a_at) / Fold change /veh GIMAP4 (11747438_a_at) / RFU KRT8 (11758183_x_at) / Fold change /veh KRT8 (11758183_x_at) / RFU CNN1 (11734310_a_at) / Fold change /veh CNN1 (11734310_a_at) / RFU VPS37D (11726825_at) / Fold change /veh VPS37D (11726825_at) / RFU C10orf10 (11716522_x_at) / Fold change /veh C10orf10 (11716522_x_at) / RFU KIR2DL2 /// KIR2DL4 /// KIR2DL5A /// KIR2DL5B /// KIR2DS1 /// KIR2DS2 /// KIR2DS3 /// KIR2DS4 /// KIR3DL3 /// KIR3DL3 /// KIR3DS1 (11738374_at) / Fold change /veh KIR2DL2 /// KIR2DL4 /// KIR2DL5A /// KIR2DL5B /// KIR2DS1 /// KIR2DS2 /// KIR2DS3 /// KIR2DS4 /// KIR3DL3 /// KIR3DL3 /// KIR3DS1 (11738374_at) / RFU C1QL1 (11718748_at) / Fold change /veh C1QL1 (11718748_at) / RFU TMPRSS4 (11747572_a_at) / Fold change /veh TMPRSS4 (11747572_a_at) / RFU HAMP (11756126_x_at) / Fold change /veh HAMP (11756126_x_at) / RFU RNFT2 (11725882_a_at) / Fold change /veh RNFT2 (11725882_a_at) / RFU NR4A2 (11747474_a_at) / Fold change /veh NR4A2 (11747474_a_at) / RFU ABCC12 (11746883_a_at) / Fold change /veh ABCC12 (11746883_a_at) / RFU TMEM136 (11760407_x_at) / Fold change /veh TMEM136 (11760407_x_at) / RFU CLDN22 /// WWC2 (11732394_at) / Fold change /veh CLDN22 /// WWC2 (11732394_at) / RFU HLA-DPB1 (11760878_x_at) / Fold change /veh HLA-DPB1 (11760878_x_at) / RFU SPINT1 (11716480_a_at) / Fold change /veh SPINT1 (11716480_a_at) / RFU GAP43 (11754022_s_at) / Fold change /veh GAP43 (11754022_s_at) / RFU A4GNT (11735810_at) / Fold change /veh A4GNT (11735810_at) / RFU PRB3 (11715151_x_at) / Fold change /veh PRB3 (11715151_x_at) / RFU TUBB4B (11761932_at) / Fold change /veh TUBB4B (11761932_at) / RFU CAPN14 (11732068_a_at) / Fold change /veh CAPN14 (11732068_a_at) / RFU TMCC2 (11721928_a_at) / Fold change /veh TMCC2 (11721928_a_at) / RFU IRGQ (11745062_a_at) / Fold change /veh IRGQ (11745062_a_at) / RFU FAM174B (11720279_a_at) / Fold change /veh FAM174B (11720279_a_at) / RFU TMPRSS4 (11748680_a_at) / Fold change /veh TMPRSS4 (11748680_a_at) / RFU FAM212B (11763350_a_at) / Fold change /veh FAM212B (11763350_a_at) / RFU PLEKHG5 (11743358_a_at) / Fold change /veh PLEKHG5 (11743358_a_at) / RFU ZSCAN30 (11745921_a_at) / Fold change /veh ZSCAN30 (11745921_a_at) / RFU CMKLR1 (11741424_a_at) / Fold change /veh CMKLR1 (11741424_a_at) / RFU LOC101060620 /// MAPK8IP1 (11723275_at) / Fold change /veh LOC101060620 /// MAPK8IP1 (11723275_at) / RFU SPTSSB (11747773_x_at) / Fold change /veh SPTSSB (11747773_x_at) / RFU PRSS12 (11739890_at) / Fold change /veh PRSS12 (11739890_at) / RFU BIN1 (11741810_x_at) / Fold change /veh BIN1 (11741810_x_at) / RFU WNT11 (11732464_a_at) / Fold change /veh WNT11 (11732464_a_at) / RFU C10orf10 (11716521_a_at) / Fold change /veh C10orf10 (11716521_a_at) / RFU C5orf56 (11738089_at) / Fold change /veh C5orf56 (11738089_at) / RFU CYB561 (11721691_x_at) / Fold change /veh CYB561 (11721691_x_at) / RFU ANKRD19P (11752326_a_at) / Fold change /veh ANKRD19P (11752326_a_at) / RFU OR2T12 /// OR2T33 /// OR2T8 (11738714_s_at) / Fold change /veh OR2T12 /// OR2T33 /// OR2T8 (11738714_s_at) / RFU VCAN (11748164_a_at) / Fold change /veh VCAN (11748164_a_at) / RFU JSRP1 (11732532_at) / Fold change /veh JSRP1 (11732532_at) / RFU KRTAP10-11 (11738290_x_at) / Fold change /veh KRTAP10-11 (11738290_x_at) / RFU MYO3A (11730013_a_at) / Fold change /veh MYO3A (11730013_a_at) / RFU EBF3 (11725865_a_at) / Fold change /veh EBF3 (11725865_a_at) / RFU CAMK2N1 (11719241_x_at) / Fold change /veh CAMK2N1 (11719241_x_at) / RFU C5orf56 (11738088_a_at) / Fold change /veh C5orf56 (11738088_a_at) / RFU OLFML3 (11715873_a_at) / Fold change /veh OLFML3 (11715873_a_at) / RFU LOC100653217 /// NTM (11731650_a_at) / Fold change /veh LOC100653217 /// NTM (11731650_a_at) / RFU MAPK11 (11762145_a_at) / Fold change /veh MAPK11 (11762145_a_at) / RFU FIZ1 (11724087_x_at) / Fold change /veh FIZ1 (11724087_x_at) / RFU OASL (11726364_x_at) / Fold change /veh OASL (11726364_x_at) / RFU SOX15 (11748057_x_at) / Fold change /veh SOX15 (11748057_x_at) / RFU CD79A (11719716_a_at) / Fold change /veh CD79A (11719716_a_at) / RFU HIST1H1D (11736915_at) / Fold change /veh HIST1H1D (11736915_at) / RFU CASKIN2 (11723855_a_at) / Fold change /veh CASKIN2 (11723855_a_at) / RFU LOC730098 (11760151_x_at) / Fold change /veh LOC730098 (11760151_x_at) / RFU OR4N2 (11742367_at) / Fold change /veh OR4N2 (11742367_at) / RFU PRRT2 (11749266_a_at) / Fold change /veh PRRT2 (11749266_a_at) / RFU SNX32 (11753110_a_at) / Fold change /veh SNX32 (11753110_a_at) / RFU CDHR5 (11726645_a_at) / Fold change /veh CDHR5 (11726645_a_at) / RFU RCAN1 (11760418_a_at) / Fold change /veh RCAN1 (11760418_a_at) / RFU FAM167A (11723789_a_at) / Fold change /veh FAM167A (11723789_a_at) / RFU FAM26E (11764081_at) / Fold change /veh FAM26E (11764081_at) / RFU ISYNA1 (11749810_s_at) / Fold change /veh ISYNA1 (11749810_s_at) / RFU ACY1 (11761880_at) / Fold change /veh ACY1 (11761880_at) / RFU 11764098_at / Fold change /veh 11764098_at / RFU SAMD14 (11745864_x_at) / Fold change /veh SAMD14 (11745864_x_at) / RFU NPB (11741838_a_at) / Fold change /veh NPB (11741838_a_at) / RFU TMPRSS6 (11731388_a_at) / Fold change /veh TMPRSS6 (11731388_a_at) / RFU KRTAP10-2 (11738614_at) / Fold change /veh KRTAP10-2 (11738614_at) / RFU ARHGAP8 /// PRR5-ARHGAP8 (11727945_x_at) / Fold change /veh ARHGAP8 /// PRR5-ARHGAP8 (11727945_x_at) / RFU KRTAP5-7 /// NADSYN1 (11734609_at) / Fold change /veh KRTAP5-7 /// NADSYN1 (11734609_at) / RFU RASL12 (11751679_a_at) / Fold change /veh RASL12 (11751679_a_at) / RFU CDKN2B (11736163_a_at) / Fold change /veh CDKN2B (11736163_a_at) / RFU PRF1 (11729649_at) / Fold change /veh PRF1 (11729649_at) / RFU, ZNF638 /// ZNF638-IT1 / Fold change vs veh, ZNF638 /// ZNF638-IT1 / RFU, PANK3 / Fold change vs veh, PANK3 / RFU, SH3YL1 / Fold change vs veh, SH3YL1 / RFU, ZEB2 / Fold change vs veh, ZEB2 / RFU, NRIP1 / Fold change vs veh, NRIP1 / RFU, PTTG1IP / Fold change vs veh, PTTG1IP / RFU, CAPN2 / Fold change vs veh, CAPN2 / RFU, MED14 / Fold change vs veh, MED14 / RFU, SNORA58 / Fold change vs veh, SNORA58 / RFU, C1orf63 / Fold change vs veh, C1orf63 / RFU, LRRFIP1 / Fold change vs veh, LRRFIP1 / RFU, NDUFAF7 / Fold change vs veh, NDUFAF7 / RFU, SLC12A2 / Fold change vs veh, SLC12A2 / RFU, IBTK / Fold change vs veh, IBTK / RFU, ESF1 / Fold change vs veh, ESF1 / Fold change vs veh, TMEM50B / RFU, TAOK1 / Fold change vs veh, TAOK1 / RFU, ACBD3 / Fold change vs veh, ACBD3 / RFU, TMA16 / Fold change vs veh, TMA16 / RFU, RWDD3 / Fold change vs veh, RWDD3 / RFU, BCAT1 / Fold change vs veh, BCAT1 / RFU, EDEM3 / Fold change vs veh, EDEM3 / RFU, TMEM33 / Fold change vs veh, TMEM33 / RFU, WDR75 / Fold change vs veh, WDR75 / RFU, AHCTF1 / Fold change vs veh, AHCTF1 / RFU, TFRC / Fold change vs veh, TFRC / RFU, ZDHHC17 / Fold change vs veh, ZDHHC17 / RFU, NOM1 / Fold change vs veh, NOM1 / RFU, ARL8B / Fold change vs veh, ARL8B / RFU, ZBTB11 / Fold change vs veh, ZBTB11 / RFU, TAMM41 / Fold change vs veh, TAMM41 / RFU, KIAA1704 /// LOC100996395 / Fold change vs veh, KIAA1704 /// LOC100996395 / RFU, ING1 / Fold change vs veh, ING1 / RFU, TRMT61B / Fold change vs veh, TRMT61B / RFU, FUBP3 / Fold change vs veh, FUBP3 / RFU, TP53 / Fold change vs veh, TP53 / RFU, TNKS2 / Fold change vs veh, TNKS2 / RFU, ZFP14 / Fold change vs veh, ZFP14 / RFU, ACTR2 / Fold change vs veh, ACTR2 / RFU, PPP3R1 / Fold change vs veh, PPP3R1 / RFU, PIK3R1 / Fold change vs veh, PIK3R1 / RFU, HNRNPA1 / Fold change vs veh, HNRNPA1 / RFU, RNF170 / Fold change vs veh, RNF170 / RFU, ZNF28 / Fold change vs veh, ZNF28 / RFU, RNGTT / Fold change vs veh, RNGTT / RFU, OGT / Fold change vs veh, OGT / RFU, BRD1 / Fold change vs veh, BRD1 / RFU, MARS / Fold change vs veh, MARS / RFU, ZNF655 / Fold change vs veh, ZNF655 / RFU, FAHD1 / Fold change vs veh, FAHD1 / RFU, BDP1 / Fold change vs veh, BDP1 / RFU, LRRCC1 / Fold change vs veh, LRRCC1 / RFU, ARID1A / Fold change vs veh, ARID1A / RFU, ZNF146 / Fold change vs veh, ZNF146 / RFU, ZNF330 / Fold change vs veh, ZNF330 / RFU, GPN3 / Fold change vs veh, GPN3 / RFU, C9orf123 / Fold change vs veh, C9orf123 / RFU, N4BP2L2 / Fold change vs veh, N4BP2L2 / RFU, ARFIP1 / Fold change vs veh, ARFIP1 / RFU, FAM179B / Fold change vs veh, FAM179B / RFU, BCL10 / Fold change vs veh, BCL10 / RFU, UHRF1BP1L / Fold change vs veh, UHRF1BP1L / RFU, BET1 / Fold change vs veh, BET1 / RFU, CNOT2 / Fold change vs veh, CNOT2 / RFU, ZNF268 / Fold change vs veh, ZNF268 / Fold change vs veh, ZNF507 / RFU, DGCR2 / Fold change vs veh, DGCR2 / RFU, WDSUB1 / Fold change vs veh, WDSUB1 / Fold change vs veh, HSP90B1 /// MIR3652 / RFU, ADSS / Fold change vs veh, ADSS / RFU, GK / Fold change vs veh, GK / RFU, ZNF148 / Fold change vs veh, ZNF148 / RFU, TAF9 / Fold change vs veh, TAF9 / RFU, SLC1A5 / Fold change vs veh, SLC1A5 / RFU, SLMO2 / Fold change vs veh, SLMO2 / RFU, ABCC4 / Fold change vs veh, ABCC4 / RFU, LOC101060439 /// RAP1B / Fold change vs veh, LOC101060439 /// RAP1B / RFU, RFX7 / Fold change vs veh, RFX7 / RFU, GTPBP10 / Fold change vs veh, GTPBP10 / RFU, CNEP1R1 / Fold change vs veh, CNEP1R1 / RFU, BIVM-ERCC5 /// ERCC5 / Fold change vs veh, BIVM-ERCC5 /// ERCC5 / RFU, ILF3 / Fold change vs veh, ILF3 / RFU 11762660_at / Fold change /veh 11762660_at / RFU VCAN (11757783_s_at) / Fold change /veh VCAN (11757783_s_at) / RFU DDX43 (11728927_at) / Fold change /veh DDX43 (11728927_at) / RFU KRT8 (11758188_x_at) / Fold change /veh KRT8 (11758188_x_at) / RFU NKD1 (11759106_at) / Fold change /veh NKD1 (11759106_at) / RFU SRD5A1 (11742802_a_at) / Fold change /veh SRD5A1 (11742802_a_at) / RFU TPSAB1 /// TPSB2 (11721975_s_at) / Fold change /veh TPSAB1 /// TPSB2 (11721975_s_at) / RFU GSTM3 (11746129_a_at) / Fold change /veh GSTM3 (11746129_a_at) / RFU IL23R (11737362_x_at) / Fold change /veh IL23R (11737362_x_at) / RFU TMEM51 (11727254_a_at) / Fold change /veh TMEM51 (11727254_a_at) / RFU PIWIL2 (11732686_x_at) / Fold change /veh PIWIL2 (11732686_x_at) / RFU ORM1 (11744905_x_at) / Fold change /veh ORM1 (11744905_x_at) / RFU CCDC152 (11743942_at) / Fold change /veh CCDC152 (11743942_at) / RFU ECM1 (11717891_a_at) / Fold change /veh ECM1 (11717891_a_at) / RFU IL23R (11748794_a_at) / Fold change /veh IL23R (11748794_a_at) / RFU TNFAIP8L3 (11732012_x_at) / Fold change /veh TNFAIP8L3 (11732012_x_at) / RFU MBOAT4 (11741988_at) / Fold change /veh MBOAT4 (11741988_at) / RFU 11764193_at / Fold change /veh 11764193_at / RFU TMEM53 (11763286_at) / Fold change /veh TMEM53 (11763286_at) / RFU MAGEB2 (11727129_at) / Fold change /veh MAGEB2 (11727129_at) / RFU TMEM200A (11744735_a_at) / Fold change /veh TMEM200A (11744735_a_at) / RFU CCDC152 (11751479_a_at) / Fold change /veh CCDC152 (11751479_a_at) / RFU FAM211A (11726209_a_at) / Fold change /veh FAM211A (11726209_a_at) / RFU RGS16 (11746705_a_at) / Fold change /veh RGS16 (11746705_a_at) / RFU VCAN (11755009_s_at) / Fold change /veh VCAN (11755009_s_at) / RFU RHOB (11743442_s_at) / Fold change /veh RHOB (11743442_s_at) / RFU RGS16 (11720943_a_at) / Fold change /veh RGS16 (11720943_a_at) / RFU RGS16 (11720944_at) / Fold change /veh RGS16 (11720944_at) / RFU, VPS4B / Fold change vs veh, VPS4B / RFU, CREB1 / Fold change vs veh, CREB1 / RFU, DNAJC13 / Fold change vs veh, DNAJC13 / RFU, GNAQ / Fold change vs veh, GNAQ / RFU, CDK5R1 / Fold change vs veh, CDK5R1 / RFU, ZRANB3 / Fold change vs veh, ZRANB3 / RFU, CUL4A / Fold change vs veh, CUL4A / RFU, CCNY / Fold change vs veh, CCNY / RFU, UFL1 / Fold change vs veh, UFL1 / RFU, COG3 / Fold change vs veh, COG3 / RFU, DIAPH2 / Fold change vs veh, DIAPH2 / RFU, SKA2 / Fold change vs veh, SKA2 / RFU, AFF3 / Fold change vs veh, AFF3 / RFU, LMF1 / Fold change vs veh, LMF1 / RFU, IPO11 / Fold change vs veh, IPO11 / RFU, DFFB / Fold change vs veh, DFFB / RFU, FOXP1 / Fold change vs veh, FOXP1 / RFU, CARD8 / Fold change vs veh, CARD8 / RFU, STRN3 / Fold change vs veh, STRN3 / RFU, ADK / Fold change vs veh, ADK / RFU, RASSF2 / Fold change vs veh, RASSF2 / RFU, WIPF1 / Fold change vs veh, WIPF1 / RFU, LARP1B / Fold change vs veh, LARP1B / RFU, RASA1 / Fold change vs veh, RASA1 / RFU, RB1 / Fold change vs veh, RB1 / RFU, PPFIA1 / Fold change vs veh, PPFIA1 / RFU, MAT2A / Fold change vs veh, MAT2A / RFU, CCT5 / Fold change vs veh, CCT5 / RFU, WDR92 / Fold change vs veh, WDR92 / RFU, CUX1 / Fold change vs veh, CUX1 / RFU, TTC7A / Fold change vs veh, TTC7A / RFU, TMEM135 / Fold change vs veh, TMEM135 / RFU, DEPTOR / Fold change vs veh, DEPTOR / RFU, CPM / Fold change vs veh, CPM / RFU, DNAJB6 / Fold change vs veh, DNAJB6 / RFU, CACNA2D3 / Fold change vs veh, CACNA2D3 / RFU, DTX4 / Fold change vs veh, DTX4 / RFU, TFCP2 / Fold change vs veh, TFCP2 / RFU, GMCL1 /// GMCL1P1 / Fold change vs veh, GMCL1 /// GMCL1P1 / RFU, AEBP2 / Fold change vs veh, AEBP2 / RFU, SNHG1 /// SNORD22 /// SNORD25 /// SNORD26 /// SNORD27 /// SNORD28 /// SNORD29 /// SNORD31 / Fold change vs veh, SNHG1 /// SNORD22 /// SNORD25 /// SNORD26 /// SNORD27 /// SNORD28 /// SNORD29 /// SNORD31 / Fold change (Aza/veh), C12orf56 (ProbeSet 11735607_a_at) / Fold change (ACY-1035/veh), C12orf56 (ProbeSet 11735607_a_at) / Fold change (Aza/veh), FGFR1OP (ProbeSet 11751329_s_at) / Fold change (ACY-1035/veh), FGFR1OP (ProbeSet 11751329_s_at) / Fold change (Aza/veh), VPS36 (ProbeSet 11739960_a_at) / Fold change (ACY-1035/veh), VPS36 (ProbeSet 11739960_a_at) / RFU SYPL1 (11715823_x_at) / Fold change /veh SYPL1 (11715823_x_at) / RFU IGFBP7 (11715501_s_at) / Fold change /veh IGFBP7 (11715501_s_at) / RFU REEP3 (11722064_at) / Fold change /veh REEP3 (11722064_at) / RFU IGLL1 (11728026_x_at) / Fold change /veh IGLL1 (11728026_x_at): dose or concentration left out as unconfirmed
Details: ProbeSet 11720270_a_at; LIST B

`Nc1ncn([C@@H]2O[C@H](CO)[C@@H](O)[C@H]2O)c(=O)n1` [azacitidine] was tested, and the “Fold change vs veh, IBTK” value was 0.96.
